# Assay results reported in paper PMC6692420, “Validation of [^125I]CPCR4.3 as an investigative tool for the sensitive and specific detection of hCXCR4 and mCXCR4 expression in vitro and in vivo” (EJNMMI Research, 2019).
# Non-standard residues stand in square brackets, D forms with d. Residues, ends and D or L forms follow the SMILES beside them. dAla(N-(6-guanidinohexyl)) = C[C@@H](NCCCCCCNC(=N)N)C(=O)O; dTyr(3-I) = N[C@H](Cc1ccc(O)c(I)c1)C(=O)O; 2Nal = N[C@@H](Cc1ccc2ccccc2c1)C(=O)O
# Legend:
# [1] = target: T1, hCXCR4 (Homo sapiens, UniProt P61073); assay: Competitive binding assay (IC50) on Jurkat cells with [^125I]CPCR4.3 as radioligand; details: for IC50: Jurkat human T cell leukemia cells, 200,000 cells/sample, radioligand [^125I]CPCR4.3
# T1 construct: endogenous hCXCR4 (Jurkat); endogenous in cells
# T1 sequence (P61073 whole entry): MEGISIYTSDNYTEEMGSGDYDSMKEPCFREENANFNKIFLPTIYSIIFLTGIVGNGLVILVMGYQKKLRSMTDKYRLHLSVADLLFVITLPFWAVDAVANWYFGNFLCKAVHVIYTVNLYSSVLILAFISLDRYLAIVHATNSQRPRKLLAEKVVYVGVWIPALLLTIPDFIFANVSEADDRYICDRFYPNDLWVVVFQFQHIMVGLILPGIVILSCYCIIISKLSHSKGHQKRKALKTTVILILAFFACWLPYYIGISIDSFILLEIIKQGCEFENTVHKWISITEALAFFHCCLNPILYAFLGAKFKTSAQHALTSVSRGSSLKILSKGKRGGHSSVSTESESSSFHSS
# Description: To allow data normalization, [^natGa] […] Experiments were performed in triplicate with n = 3 per concentration in each experiment. IC50 values were calculated using GraphPad Prism 6.01 (Graph Pad Software, San Diego, USA).
# [2] = target: T2, mCXCR4 (Mus musculus, UniProt P70658); assay: Competitive binding assay (IC50) on Eμ-Myc 1080 mouse lymphoma cells with [^125I]CPCR4.3 as radioligand; details: Eμ-Myc1080 mouse B cell lymphoma cells, 200,000 cells/sample, radioligand [^125I]CPCR4.3
# T2 construct: endogenous in cells; host or cells: Eμ-myc 1080 mouse B cell lymphoma cells
# T2 sequence (P70658 whole entry): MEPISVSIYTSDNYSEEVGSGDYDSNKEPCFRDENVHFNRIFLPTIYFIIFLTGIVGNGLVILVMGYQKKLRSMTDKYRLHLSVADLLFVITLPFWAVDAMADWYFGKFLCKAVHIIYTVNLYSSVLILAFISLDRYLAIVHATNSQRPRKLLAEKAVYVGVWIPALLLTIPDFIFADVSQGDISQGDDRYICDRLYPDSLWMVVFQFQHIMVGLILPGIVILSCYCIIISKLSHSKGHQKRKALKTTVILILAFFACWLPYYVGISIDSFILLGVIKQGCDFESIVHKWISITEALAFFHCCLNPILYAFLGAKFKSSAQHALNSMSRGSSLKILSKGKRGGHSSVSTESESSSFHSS
# Description: To allow data normalization, [^natGa] Pentixafor and FC-131 were included as references in this study. Experiments were performed in triplicate with n = 3 per concentration in each experiment. IC50 values were calculated using GraphPad Prism 6.01 (Graph Pad Software, San Diego, USA).
Compound,IC50 [1] [nM],IC50 [2] [nM],hCXCR4 affinity higher than [^natGa]Pentixafor ([1]; assay conditions of this study)
N=C(N)NCCC[C@@H]1NC(=O)[C@H](CCCNC(=N)N)NC(=O)[C@@H](Cc2ccc(O)cc2)NC(=O)CNC(=O)[C@H](Cc2ccc3ccccc3c2)NC1=O [FC-131],–,119 ± 69,more than 3 fold
"Ga-Pentixafor: natGa complex of the cyclic pentapeptide Pentixafor, hCXCR4 selective reference ligand",–,> 1000,–
"Ga-Pentixafor: natGa complex of the cyclic pentapeptide Pentixafor, hCXCR4 selective reference ligand (YXRXG; Head-to-tail cyclic pentapeptide; The parent CPCR4.3 is printed as cyclo(-D-Tyr1-D-[N-hexyl-6-guanidino]Ala2-Arg3-Nal4-Gly5-); the text states that Pentixafor has D-Orn at position 2 instead of the N-)",42.4 ± 11.6,–,–

# Other lines, results leading:
IC50 [1] [nM],IC50 [2] [nM],hCXCR4 affinity higher than [^natGa]Pentixafor ([1]; assay conditions of this study),Compound
2.8 ± 1.1,0.8 ± 0.1,–,"C[C@@H]1C(=O)N[C@@H](CCCNC(=N)N)C(=O)N[C@@H](Cc2ccc3ccccc3c2)C(=O)NCC(=O)N[C@H](Cc2ccc(O)cc2)C(=O)N1CCCCCCNC(=N)N [CPCR4.3, cyclo(-D-Tyr^1-D-[N-hexyl-6-guanidino]Ala^2-Arg^3-Nal^4-Gly^5-)] (cyclo([dY][dAla(N-(6-guanidinohexyl))]R[2Nal]G))"
5.4 ± 1.5,4.9 ± 1.7,–,C[C@@H]1C(=O)N[C@@H](CCCNC(=N)N)C(=O)N[C@@H](Cc2ccc3ccccc3c2)C(=O)NCC(=O)N[C@H](Cc2ccc(O)c(I)c2)C(=O)N1CCCCCCNC(=N)N [iodo-CPCR4.3] (cyclo([dTyr(3-I)][dAla(N-(6-guanidinohexyl))]R[2Nal]G))
